Laboratory results reported in US20200039930A1, “PROLINE AMIDE COMPOUNDS AND THEIR AZETIDINE ANALOGUES CARRYING A SPECIFICALLY SUBSTITUTED BENZYL RADICAL” (AbbVie Deutschland GmbH & Co. KG, priority 2017, published 2020).

How the values were obtained:
[1] = biological target: T1, 5-HT2C receptor (Homo sapiens, UniProt P28335); assay: Human 5-HT2C functional assay (beta-arrestin2 recruitment, U2OS_HTR2C_β-Arrestin cells); format: cell-based; settings: compounds used as acid addition salts; for EC50: U2OS_HTR2C_β-Arrestin cells, 1.5 h incubation, read-out: EC50 5-HT2C (potency in functional assay); for Emax: relative efficacy vs response to 10 µM 5-HT or maximal effect of 5-HT (100%)
T1 construct: host or cells: U2OS
Procedure: The functional activity of compounds of formula I was assayed by incubation with U2OS_HTR2C_β-Arrestin cells (DiscoverX, 93-0289C3) to induce beta-arrestin2 recruitment to the 5-HT2C receptor. The agonist-induced recruitment and proximity of the receptor and beta-arrestin2 leads to complementation and formation of active β-galactosidase. The enzyme complementation results in enzyme activity, which is measured following the termination of the agonist incubation using DiscoveRx's detection reagent, which contains a chemiluminescent substrate which produces a high intensity signal. Cells were plated and a medium-change to a 1% serum containing medium was performed 24 h later. The next day, test compounds were added and incubated for 1.5 h before addition of detection reagent.
The response produced was measured and compared with the response produced by 10 [mu]M 5-HT or the maximal effect induced by 5-HT (defined as 100%) to which it was expressed as a percentage response (relative efficacy). Dose response curves were con-structed using Graphpad Prism (Graph Software Inc.) or using in house adapted software using a 4 parameter dose response model with variable slope (fit=(Bottom+(Top−Bottom)/(1+10^((LogEC50−x)*Hill Slope))res=(y−fit)). Results are compiled in the table below.

[2] = Metabolic stability: unbound intrinsic clearance in liver microsomes; format: in vitro ADME; settings: rat; liver microsomes 0.25 mg protein/mL, 0.5 μM compound, pH 7.4, 37° C.; Cl int unbound=Cl int/fu mic; compounds used as acid addition salts; read-out: Cl int, mic unb. (r) (unbound intrinsic clearance)
Procedure: Samples of the tested compounds (0.5 μM) were preincubated together with rat liver microsomes (0.25 mg of microsomal protein/mL) in 0.05 M potassium phosphate buffer of pH 7.4 in microtiter plates at 37° C. for 5 minutes. The reaction was started by adding NADPH (1.0 mM). After 0, 5, 10, 15, 20 and 30 minutes, an aliquot was removed, the reaction was cooled and stopped by adding twice the amount of quench solution consisting of acetonitrile/methanol 1:1, and containing […] carbutamide as internal standard. The samples were frozen until analyzed. The remaining concentration of undegraded test substance was determined by liquid chromatography-tandem mass spectrometry (LC-MS/MS). The half-life (t1/2) was determined from the gradient of the ratio of the signal of (test substance/internal standard)/unit time plot, allowing the calculation of the half-life of the test substance, assuming first order kinetics, from the decrease in the concentration of the compound with time. The microsomal clearance (mClint) was calculated as follows: mClint=((ln(2)/t 1/2)/Microsomal Protein Concentration (mg/ml))*1000, leading to the unit of uL/min/mg. The scaled clearance (mClin_scaled) was calculated as mCLint_scaled=m CLint*(Microsomal Yield (mg/kg BW))/1000000*60, leading to the units L/h/kg. The Microsomal Yield is defined by the specifics of the used microsomes. Calculations were modified from refer-ences: Di, The Society for Biomolecular Screening, 2003, 453-462; Obach, D M D, 1999 vol 27. N 11, 1350-1359.
A suspension of 0.25 mg/ml microsomal protein spiked with 0.5 μM of test compound was pipetted on one side of a HTDialysis device (HTDialysis LLC,37 Ledgewood Drive, Gales Fery Conn. 06335) separated by a membrane with a MWcut off 12-14 K. 50 mM K-Phosphate buffer (pH 7.4) was added on the other side of the well. After incubation at 37° C. for 4 h while shaking at 150 rpm, aliquots of both sides were taken, quenched with MeOH/ACN 1:1 and 0.2 μM of internal standard and frozen until analy-sis by LCMSMS.
Cl int unbound=Cl int/fu mic
The compounds were used in form of their respective acid addition salts.

T1 sequence (P28335 33-458): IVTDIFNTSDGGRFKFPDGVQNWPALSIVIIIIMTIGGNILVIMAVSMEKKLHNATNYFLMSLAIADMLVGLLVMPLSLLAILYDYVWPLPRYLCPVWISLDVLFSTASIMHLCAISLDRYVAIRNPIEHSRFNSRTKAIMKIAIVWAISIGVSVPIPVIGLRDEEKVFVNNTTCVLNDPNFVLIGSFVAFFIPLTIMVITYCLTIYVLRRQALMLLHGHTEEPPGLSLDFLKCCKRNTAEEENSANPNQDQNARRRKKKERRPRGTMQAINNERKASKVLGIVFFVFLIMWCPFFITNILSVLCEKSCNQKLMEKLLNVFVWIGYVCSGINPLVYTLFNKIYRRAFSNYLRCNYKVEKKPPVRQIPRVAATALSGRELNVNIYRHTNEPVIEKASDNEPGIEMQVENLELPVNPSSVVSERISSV
T1 sequence (P32121 whole entry partner): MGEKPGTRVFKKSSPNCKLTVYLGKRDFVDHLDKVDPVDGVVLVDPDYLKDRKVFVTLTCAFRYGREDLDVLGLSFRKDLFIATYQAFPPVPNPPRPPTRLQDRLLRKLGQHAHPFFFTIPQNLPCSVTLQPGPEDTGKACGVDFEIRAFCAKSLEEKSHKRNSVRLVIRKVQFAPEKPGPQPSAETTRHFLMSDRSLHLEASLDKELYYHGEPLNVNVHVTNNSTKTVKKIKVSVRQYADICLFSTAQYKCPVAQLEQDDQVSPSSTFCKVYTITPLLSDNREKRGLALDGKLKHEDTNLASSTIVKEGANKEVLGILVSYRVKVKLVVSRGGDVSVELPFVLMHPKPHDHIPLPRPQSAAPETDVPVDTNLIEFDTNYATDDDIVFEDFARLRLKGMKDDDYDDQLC

With `COc1cc(OCC(F)(F)C(F)C(F)(F)F)c(F)cc1CNC(=O)[C@@H]1CCCN1` (stereo partly drawn) [Example 21, (2S)—N-[[5-Fluoro-4-(2,2,3,4,4,4-hexafluorobutoxy)-2-methoxy-phenyl]methyl]-pyrrolidine-2-carboxamide] the EC50 [1] was under 5 nM, the Emax [1] was over 70% and the CLint scaled at 0.5 μM [2] was under 500 mL/min/kg.

Work on `COc1cc(O[C@H]2CC[C@H](C(F)(F)F)CC2)c(F)cc1CNC(=O)[C@@H]1CCCN1` [Example 33, (S)—N-(5-Fluoro-4-((trans-4-trifluoromethyl-cyclohexyl)oxy)-2-methoxybenzyl)-pyrrolidine-2-carboxamide] yielded an EC50 [1] of under 5 nM, an Emax [1] of over 70% and a CLint scaled at 0.5 μM [2] of under 500 mL/min/kg.

For `COc1cc(OCc2ccnc(F)c2)c(F)cc1CNC(=O)[C@@H]1CCCN1` [Example 8, (2S)—N-[[5-fluoro-4-[(2-fluoro-4-pyridyl)methoxy]-2-methoxy-phenyl]methyl]-pyrrolidine-2-carboxamide], the EC50 [1] was 15 to 30 nM, the Emax [1] was over 70% and the CLint scaled at 0.5 μM [2] was under 500 mL/min/kg.

For `COc1cc(OCc2cccc(F)c2F)c(F)cc1CNC(=O)[C@@H]1CCCN1` [Example 4, (2S)—N-[[4-[(2,3-Difluorophenyl)methoxy]-5-fluoro-2-methoxy-phenyl]methyl]-pyrrolidine-2-carboxamide], the EC50 [1] was 5 to 15 nM, the Emax [1] was over 70% and the CLint scaled at 0.5 μM [2] was 1330 to 4170 mL/min/kg.

Work on `COc1cc(OCC(C)CC(F)(F)F)c(F)cc1CNC(=O)[C@@H]1CCCN1` (stereo partly drawn) [Example 25, (2S)—N-[[5-Fluoro-2-methoxy-4-(4,4,4-trifluoro-2-methyl-butoxy)phenyl]methyl]-pyrrolidine-2-carboxamide] yielded an EC50 [1] of under 5 nM, an Emax [1] of over 70% and a CLint scaled at 0.5 μM [2] of 500 to 1330 mL/min/kg.

`COc1cc(OC2CC(F)(F)C2)c(F)cc1CNC(=O)[C@@H]1CCCN1C` [Example 37, (2S)—N-[[4-(3,3-Difluorocyclobutoxy)-5-fluoro-2-methoxy-phenyl]methyl]-1-methyl-pyrrolidine-2-carboxamide] showed an EC50 [1] of 5 to 15 nM, an Emax [1] of over 70% and a CLint scaled at 0.5 μM [2] of 500 to 1330 mL/min/kg.

`COc1cc(OCc2ccc(F)cc2)c(F)cc1CNC(=O)[C@@H]1CCCN1` [Example 3, (2S)—N-[[5-Fluoro-4-[(4-fluorophenyl)methoxy]-2-methoxy-phenyl]methyl]-pyrrolidine-2-carboxamide] showed an EC50 [1] of under 5 nM, an Emax [1] of over 70% and a CLint scaled at 0.5 μM [2] of 1330 to 4170 mL/min/kg.

Compound `[2H]C1([2H])NC([2H])(C(=O)NCc2cc(F)c(OC3CCC(C(F)(F)F)CC3)cc2OC)C([2H])([2H])C1([2H])[2H]` (stereo not drawn) [Example 42, 2,3,3,4,4,5,5-Heptadeuterio-N-[[5-fluoro-2-methoxy-4-[4-(trifluoromethyl)cyclohexoxy]phenyl]methyl]pyrrolidine-2-carboxamide] has an EC50 [1] of under 5 nM, an Emax [1] of over 70% and a CLint scaled at 0.5 μM [2] of under 500 mL/min/kg.

Work on `COc1cc(O[C@H]2CC[C@H](C(F)(F)F)CC2)c(F)cc1CNC(=O)[C@@H]1CCN1` [Example 41, (2S)—N-[[5-Fluoro-2-methoxy-4-[trans 4-(trifluoromethyl)cyclohexoxy]phenyl]-methyl]azetidine-2-carboxamide] yielded an EC50 [1] of under 5 nM, an Emax [1] of 50 to 70% and a CLint scaled at 0.5 μM [2] of under 500 mL/min/kg.

`COc1cc(OCc2cncc(F)c2)c(F)cc1CNC(=O)[C@@H]1CCCN1` [Example 9, (2S)—N-[[5-Fluoro-4-[(5-fluoro-3-pyridyl)methoxy]-2-methoxy-phenyl]methyl]-pyrrolidine-2-carboxamide] showed an EC50 [1] of 15 to 30 nM, an Emax [1] of over 70% and a CLint scaled at 0.5 μM [2] of 500 to 1330 mL/min/kg.

Compound `COc1cc(OCc2cc(F)cc(F)c2)c(F)cc1CNC(=O)[C@@H]1CCCN1` [Example 5, (2S)—N-[[4-[(3,5-Difluorophenyl)methoxy]-5-fluoro-2-methoxy-phenyl]methyl]-pyrrolidine-2-carboxamide] has an EC50 [1] of under 5 nM, an Emax [1] of over 70% and a CLint scaled at 0.5 μM [2] of 1330 to 4170 mL/min/kg.

In the case of `COc1cc(OCC2CCC(F)(F)C2)c(F)cc1CNC(=O)[C@@H]1CCCN1C` (stereo partly drawn) [Example 38, (2S)—N-[[4-[(3,3-Difluorocyclopentyl)methoxy]-5-fluoro-2-methoxy-phenyl]methyl]-1-methyl-pyrrolidine-2-carboxamide], the EC50 [1] is reported as 15 to 30 nM, the Emax [1] is reported as over 70% and the CLint scaled at 0.5 μM [2] is reported as 1330 to 4170 mL/min/kg.
